Marks after values point to notes of the source that are not given here. Some results are limits rather than exact numbers.

Series [1] concerns the target T1, human recombinant calcium ion channel Cav2.2/β3/α2δ-1 (Homo sapiens, UniProt P54289).
T1 construct: expressed in transfected cells; host or cells: CHO cells (membranes)
Put plainly: In vitro binding to human recombinant calcium ion channel Cav2.2/β3/α2δ-1 ([3H]gabapentin competition). Particulars: inhibition of binding of 5 nM [3H]gabapentin, CHO cell membranes, 25° C., 120 min; read-out: IC50. An excerpt: Example 28 In Vitro Binding of Compounds to Human Recombinant Calcium Ion Channel Cav2.2/β3/α2δ-1
There are four subtypes of the voltage-gated calcium ion channel α2δ subunit, α2δ-1, α2δ-2, α2δ-3 and α2δ-4, in which α2δ-1 is the subtype that mediates chronic neuropathic pain (Field, M. J. et al.; Proc. Natl. Acad. Sci. U.S.A. 2006, 103, 17537-17542). Therefore, the binding strength of a compound to α2δ-1 is a direct indicator for measuring an analgesic effect thereof on the chronic neuropathic pain (Calandre, E. P. et al.; Expert Rev. Neuroether. 2016, 16, 1263-1277).
The in vitro binding strength of the compound of the present application to human recombinant calcium ion channel Cav2.2/β3/α2δ-1 is basically operated according to a reported method (Gee, N. S. et al.; J. Biol. Chem. 1996, 271, 5768-5776; Marais, E. et al.; Mol. Pharmacol. 2001, 59, 1243-1248). CHO cells expressing the human recombinant calcium ion channel Cav2.2/β3/α2δ-1 were used in the test. After routine separation of cell membranes, 3 μg of the cell membranes were added into each well with a modified HEPES/KOH buffer solution (pH 7.4) as a solution of the test system. Then, 5 nM [^3H]gabapentin and the compound to be tested at 6 concentrations (3, 9, 27, 81, 243, and 729 nM) were added, and the test system was incubated at 25° C. for 120 min. Non-specific binding was obtained by replacing the compound to be tested in the above test system with […] gabapentin. After the incubation was completed, the cell membranes were collected by filtration and washed with 50 mM Tris-HCl (pH 7.4), and then the radioactivity of [^3H]gabapentin bound to the cell membranes was tested by a liquid scintillation technology. […] An inhibition rate of the compound of the present application on the binding of the [^3H]gabapentin to the human recombinant calcium ion channel Cav2.2/β3/α2δ-1 was calculated according to the following formula: […]
wherein • I is the radioactivity corresponding to that the compound to be tested and [^3H]gabapentin are simultaneously co-incubated with the human recombinant calcium ion channel Cav2.2/β3/α2δ-1, • I0 is the radioactivity corresponding to co-incubation of [^3H]gabapentin and the human recombinant calcium ion channel Cav2.2/β3/α2δ-1 without adding the compound to be tested into the incubation system, and • IU is the radioactivity corresponding to that 10 μM gabapentin and [^3H]gabapentin are simultaneously co-incubated with the human recombinant calcium ion channel Cav2.2/β3/α2δ-1.
The concentration of the compound to be tested that inhibits 50% of the binding of [^3H]gabapentin to the human recombinant calcium ion channel Cav2.2/β3/α2δ-1 is defined as IC50, and the IC50 is calculated by nonlinear least squares regression analysis using the above inhibition rate (MathIQ™, ID Business Solutions Ltd., UK).

Series [2] concerns Sprague Dawley (SD) rat spared nerve injury (SNI) model. Put plainly: Analgesic effect in rat spared nerve injury (SNI) chronic neuropathic pain model. It counts as in vivo. Particulars: SNI rats; for maximum possible effect (% MPE) / area under the mechanical pain threshold-time curve compared with the vehicle control group: oral gavage 30 mg/kg (calculated by free base); for maximum possible effect (% MPE) / maximum possible effect (MPE): from AUC of mechanical pain threshold-time curve to 24 h; for maximum possible effect (MPE): oral gavage 10 mg/kg (calculated by free base). How it is done: Establishment of the SNI model: Surgery was performed according to an aseptic operation method, and various surgical instruments, including scalpels, tweezers, suture needles/threads, surgical cotton, etc., were disinfected before the surgery. Animals were anesthetized by intraperitoneal injection of a Zoletil™ 50 solution at 50 mg/kg and then placed in lateral decubitus positions. After hair in surgical areas of lower bodies of animals was shaved, the animals were disinfected alternately with iodophor and 75% alcohol. The skin was cut at upper edges of left hind limbs, muscles were bluntly separated to expose a sciatic nerve trunk and 3 branches thereof, i.e., a tibial nerve, a common peroneal nerve and a sural nerve. The tibial nerve and the common peroneal nerve were ligated and cut, and the sural nerve was preserved and maintained intact. After the surgery, wounds were sutured layer by layer, the animals were administered with 25% ampicillin (1 mL/kg) through intraperitoneal injection to prevent infection, and routine nursing was performed. In sham group, only the sciatic nerve and the branches thereof were exposed, the nerves were not ligated and cut, and other operations were the same as those in the model group. Detection of a mechanical pain threshold: A Von-frey test fiber was used to detect the mechanical pain threshold of the sole of an operative side of each animal on day 1, day 3 and day 7 after the surgery, respectively. An “up-and-down” method was used as a method of detecting the mechanical pain threshold at the stimulation intensity of 0.4, 0.6, 1, 2, 4, 6, 8, and 15 g. During the test, the test fiber was used to vertically stimulate the site, close to an outer side, in the sole center of the left hind paw of a rat for 6-8 seconds each time at an interval of 5 seconds. A pain response was shown as an obvious paw withdrawal, paw licking, or paw lifting behavior of the animals during each test. From day 11 after the surgery, the animals were placed in an experimental environment for adaptation, wherein the adaptation was performed continuously for 15 min per day for 3 days. On day 13, a basic value of mechanical pain hypersensitivity was detected after the adaptation was completed. The mechanical pain hypersensitivity was expressed by a 50% paw-withdrawal threshold (PWT) according to a calculation formula of 50% PWT (g)=10^xf+kδ, wherein xf is a log value of a fiber test force, k is a tabular value, and δ is an average spacing of the log value of the fiber test force.
Pharmacodynamic evaluation: According to basic threshold detection results on day 13 after the surgery, the animals in the model group without the mechanical pain hypersensitivity, that is, the PWT was greater than 4 g, were excluded, and the other successfully modeled animals were used for a formal test. On day 14 after the surgery, various compound to be tested were newly formulated. Pregabalin was directly dissolved with 0.9% sodium chloride at a dose of 30 mg/kg to obtain a solution at a desired concentration. (±)—I-7, (±)—I-3 and (±)—I-4 p-toluenesulfonate were also completely dissolved with a 0.9% sodium chloride solution at a dose of 30 mg/kg (calculated by free base). The successfully modeled animals were randomly divided into 5 groups with 8 animals in each group. In addition, 7 animals were selected in the sham group. […] The mechanical pain hypersensitivity response of the left hind paw was detected at 1 h, 2 h, 4 h, 6 h, 8 h, 10 h, and 24 h after the administration. Evaluation was performed by using a blind method, and a detection method was the same as above. An area under a mechanical pain threshold-time curve (AUC) was calculated using GraphPad Prism Version 8.0.1 software.

Series [3] has as its system mouse 6-Hz psychomotor seizure model. Put plainly: Antiepileptic effect in mouse 6-Hz psychomotor seizure model. It is filed as in vivo. Particulars: 6-Hz model, C57BL/6 mice, gavage, dose 200 mg/kg. How it is done:
A negative vehicle control group, a positive drug control group (pregabalin and gabapentin) and a test group of the compounds of the present application were set. Male C57BL/6 mice with a body weight of 20±2 g were selected. […] After fasted for 12 h, the mice were administered the compounds of the present application or the control drugs, and then subjected to 6-Hz electrical stimulation to induce epilepsy seizure behaviors after a certain time interval (2 h for pregabalin, 1 h for gabapentin, 1 h for levetiracetam, and 3 h for the compounds of the present application). In an induction model, when the stimulation was performed with a Model 4100 stimulator (A-M Systems, the United States), rear necks of the mice were immobilized by hands on a feeding cage, a corneal electrode was moisten with normal saline and allowed to gently contact bilateral corneas of the mice, the electrical stimulator was trod by a foot to give the mice the electrical stimulation with a stimulation parameter of 6-Hz, a one-way square wave of 32 mA, a wave width of 0.2 ms and a stimulation duration of 3 sec, and timing was performed with a stopwatch during the stimulation. After the electrical stimulation was completed, the mice with the seizure behaviors lasting for less than 7 sec were regarded as being protected by the drugs, and the mice with the seizure behaviors lasting for more than 7 sec were regarded as being not protected from the epilepsy by the drugs. Response situations of the animals were observed and recorded, and obtained data were counted to calculate protection rates of the compounds.
Statistical method: The protection rates of different administration groups were separately compared with that of the vehicle control group to carry out a Fisher's exact test.

In series [4] the test system is male SD rats. Put plainly: Acute toxicity test on rats. Conditions: oral gavage 300 mg/kg (calculated by free base).
Description: After adapting to the environment for one week, the SD rats were used in a preliminary acute toxicity test. The compounds were newly formulated on the day of the test. […] After being labeled and weighed, the animals were randomly grouped with 2-4 animals in each group. […] Clinical symptoms of each animal were observed and recorded at 0.5 hours, 1 hour, 2 hours, 4 hours, 6 hours and 24 hours after the administration, respectively. Clinical symptom codes were as follows: 0 no abnormality, 1 mild tremor, 2 unsteady gait, 3 prone position, 4 startle reflex, 5 difficult breathing, 6 righting reflex disappeared, 7 eyelid closure, 8 shortness of breath, and x animal death.

T1 sequence (P54289 25-956 limits assumed): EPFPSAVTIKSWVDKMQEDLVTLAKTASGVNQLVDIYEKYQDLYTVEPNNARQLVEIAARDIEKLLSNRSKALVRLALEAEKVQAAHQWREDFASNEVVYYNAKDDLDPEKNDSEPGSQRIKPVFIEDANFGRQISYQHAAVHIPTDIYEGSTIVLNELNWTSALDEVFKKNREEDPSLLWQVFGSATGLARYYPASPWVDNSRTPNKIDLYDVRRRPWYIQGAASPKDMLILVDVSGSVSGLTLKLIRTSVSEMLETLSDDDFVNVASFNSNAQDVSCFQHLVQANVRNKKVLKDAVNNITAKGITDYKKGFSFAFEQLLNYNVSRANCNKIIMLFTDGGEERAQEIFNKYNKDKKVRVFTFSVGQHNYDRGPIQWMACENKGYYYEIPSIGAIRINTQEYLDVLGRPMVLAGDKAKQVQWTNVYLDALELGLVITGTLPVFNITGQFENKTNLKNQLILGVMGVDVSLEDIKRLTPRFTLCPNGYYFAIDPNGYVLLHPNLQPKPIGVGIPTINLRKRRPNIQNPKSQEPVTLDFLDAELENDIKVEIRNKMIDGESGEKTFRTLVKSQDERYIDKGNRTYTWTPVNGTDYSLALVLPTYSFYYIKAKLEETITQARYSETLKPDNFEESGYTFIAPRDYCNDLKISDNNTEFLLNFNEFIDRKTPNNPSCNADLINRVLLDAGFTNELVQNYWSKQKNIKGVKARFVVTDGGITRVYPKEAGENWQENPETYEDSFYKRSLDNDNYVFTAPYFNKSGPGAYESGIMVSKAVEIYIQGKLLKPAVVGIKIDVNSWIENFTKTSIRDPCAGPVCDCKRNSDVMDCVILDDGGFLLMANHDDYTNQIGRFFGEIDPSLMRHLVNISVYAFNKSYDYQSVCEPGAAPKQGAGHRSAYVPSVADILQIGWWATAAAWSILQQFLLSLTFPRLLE
T1 sequence (P54289 957-1103 partner limits assumed): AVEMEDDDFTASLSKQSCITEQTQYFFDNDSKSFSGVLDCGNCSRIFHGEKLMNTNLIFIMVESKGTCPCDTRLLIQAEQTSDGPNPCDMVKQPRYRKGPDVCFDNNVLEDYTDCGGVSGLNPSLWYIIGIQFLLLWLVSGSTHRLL
T1 sequence (Q00975 whole entry partner): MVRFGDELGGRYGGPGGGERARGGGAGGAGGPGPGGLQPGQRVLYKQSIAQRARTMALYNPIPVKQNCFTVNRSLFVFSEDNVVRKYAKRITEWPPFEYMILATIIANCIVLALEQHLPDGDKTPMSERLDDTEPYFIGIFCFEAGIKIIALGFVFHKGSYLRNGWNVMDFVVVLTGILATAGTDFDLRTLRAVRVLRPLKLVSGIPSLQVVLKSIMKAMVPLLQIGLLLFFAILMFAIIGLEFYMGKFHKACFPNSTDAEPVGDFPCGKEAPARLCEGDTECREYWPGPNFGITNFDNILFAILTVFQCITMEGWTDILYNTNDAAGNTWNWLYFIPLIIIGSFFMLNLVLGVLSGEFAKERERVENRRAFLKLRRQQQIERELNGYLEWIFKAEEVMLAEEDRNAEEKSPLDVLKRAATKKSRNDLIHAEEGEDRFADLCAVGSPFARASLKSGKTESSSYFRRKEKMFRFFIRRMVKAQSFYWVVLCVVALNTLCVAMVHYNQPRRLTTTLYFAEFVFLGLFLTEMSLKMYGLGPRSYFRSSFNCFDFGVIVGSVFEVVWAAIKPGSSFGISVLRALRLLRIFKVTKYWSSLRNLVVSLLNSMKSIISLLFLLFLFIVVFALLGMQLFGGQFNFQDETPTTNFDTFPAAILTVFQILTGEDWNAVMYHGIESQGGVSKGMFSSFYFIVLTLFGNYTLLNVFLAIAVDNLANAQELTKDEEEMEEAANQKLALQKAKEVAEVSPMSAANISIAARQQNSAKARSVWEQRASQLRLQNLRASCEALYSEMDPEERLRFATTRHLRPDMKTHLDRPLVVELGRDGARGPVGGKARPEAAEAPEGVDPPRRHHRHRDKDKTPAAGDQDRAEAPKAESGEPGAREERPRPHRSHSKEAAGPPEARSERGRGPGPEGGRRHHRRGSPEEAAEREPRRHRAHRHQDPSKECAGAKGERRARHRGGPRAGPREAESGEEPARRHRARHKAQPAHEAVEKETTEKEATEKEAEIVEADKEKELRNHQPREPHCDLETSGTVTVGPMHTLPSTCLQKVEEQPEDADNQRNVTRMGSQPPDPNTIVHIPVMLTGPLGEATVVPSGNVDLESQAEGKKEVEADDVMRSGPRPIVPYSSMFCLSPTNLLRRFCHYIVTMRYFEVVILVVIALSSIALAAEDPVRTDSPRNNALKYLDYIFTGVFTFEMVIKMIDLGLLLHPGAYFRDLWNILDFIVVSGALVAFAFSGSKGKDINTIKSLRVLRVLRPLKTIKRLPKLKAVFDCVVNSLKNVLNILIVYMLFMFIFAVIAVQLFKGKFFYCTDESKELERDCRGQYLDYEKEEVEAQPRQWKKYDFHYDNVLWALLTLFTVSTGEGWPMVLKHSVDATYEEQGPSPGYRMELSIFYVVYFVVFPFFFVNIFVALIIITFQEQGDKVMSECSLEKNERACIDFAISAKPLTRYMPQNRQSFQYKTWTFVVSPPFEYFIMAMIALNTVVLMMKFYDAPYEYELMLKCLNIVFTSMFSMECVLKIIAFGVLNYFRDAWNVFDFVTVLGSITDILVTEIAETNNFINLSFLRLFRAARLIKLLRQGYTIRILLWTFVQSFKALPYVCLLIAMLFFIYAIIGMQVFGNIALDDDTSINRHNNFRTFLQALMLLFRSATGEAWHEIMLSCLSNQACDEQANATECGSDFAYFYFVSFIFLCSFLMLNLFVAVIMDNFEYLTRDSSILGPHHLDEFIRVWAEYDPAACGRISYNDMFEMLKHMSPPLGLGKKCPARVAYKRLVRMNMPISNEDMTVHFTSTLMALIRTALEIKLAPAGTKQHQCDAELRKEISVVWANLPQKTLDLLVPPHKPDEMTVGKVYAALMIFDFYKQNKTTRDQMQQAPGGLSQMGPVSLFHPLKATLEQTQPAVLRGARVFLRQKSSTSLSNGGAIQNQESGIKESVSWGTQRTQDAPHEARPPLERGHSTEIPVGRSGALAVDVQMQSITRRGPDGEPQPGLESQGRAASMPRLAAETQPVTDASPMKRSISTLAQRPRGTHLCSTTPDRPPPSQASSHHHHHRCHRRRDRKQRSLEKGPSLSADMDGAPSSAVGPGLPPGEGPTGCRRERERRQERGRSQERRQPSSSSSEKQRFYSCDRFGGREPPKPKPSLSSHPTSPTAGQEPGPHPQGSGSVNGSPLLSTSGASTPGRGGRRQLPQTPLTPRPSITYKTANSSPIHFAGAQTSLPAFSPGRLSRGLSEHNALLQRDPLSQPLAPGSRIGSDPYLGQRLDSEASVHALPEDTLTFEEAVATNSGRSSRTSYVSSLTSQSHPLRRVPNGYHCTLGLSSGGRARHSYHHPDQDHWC
T1 sequence (P54284 whole entry partner): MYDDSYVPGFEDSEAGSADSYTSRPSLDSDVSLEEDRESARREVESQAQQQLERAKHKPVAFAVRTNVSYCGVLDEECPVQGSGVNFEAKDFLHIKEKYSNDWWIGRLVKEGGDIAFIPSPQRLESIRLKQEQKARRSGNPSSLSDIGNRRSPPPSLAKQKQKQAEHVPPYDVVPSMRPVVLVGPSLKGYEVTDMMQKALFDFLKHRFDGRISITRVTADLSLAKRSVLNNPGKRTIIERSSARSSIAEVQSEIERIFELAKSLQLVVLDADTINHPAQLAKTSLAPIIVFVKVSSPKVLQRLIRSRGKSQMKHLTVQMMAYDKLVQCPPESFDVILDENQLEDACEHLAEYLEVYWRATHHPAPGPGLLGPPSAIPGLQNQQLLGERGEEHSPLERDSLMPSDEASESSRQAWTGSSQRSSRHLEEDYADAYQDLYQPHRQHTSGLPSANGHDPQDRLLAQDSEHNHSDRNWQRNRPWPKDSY

The IC50 is the concentration that gives 50% inhibition. As for `NCC1(CC(=O)O)CC2C3CC[C@@H](C3)[C@@H]21` (mixture of isomers) [(±)-I-3], the IC50 in series [1] was found to be 15.2 nM. Moreover, in series [2], the “maximum possible effect (% MPE)” value is recorded as 44.80%.

On to `CC[C@@H](C(N)=O)N1CCCC1=O` [Levetiracetam], for which, in series [3], the “Number of animals with clonic seizures/total number” value was 3/11** and the “Protection rate (%)” value is on record as 72.7 *** %.

Regarding `NCC1(CC(=O)O)C[C@@H]2C1C1C=C[C@H]2C1` (mixture of isomers) [(±)-I-2], the IC50 in series [1] came out at 470 nM. The same measure, in the same setting: then `CC1=C(C)C2(C)CC1(C)C1CC(CN)(CC(=O)O)C12` (racemic) [(±)-I-18], with greater than 729 nM. Still for that read-out and setting: with `CC1C2CC[C@@H]1[C@H]1C2CC1(CN)CC(=O)O` (mixture of isomers) [(±)-I-16] the figure was 477 nM. On to `NCC1(CC(=O)O)CC2C3C=CC(C3)C21` (single isomer, unassigned; (-)) [(−)-I-4 p-toluenesulfonate], for which, in series [1], the IC50 was greater than 243 nM. Moreover, the “maximum possible effect (MPE)” value in series [2] is recorded as 18.53%. For the molecule `NCC1(CC(=O)O)CC2C3CCC(CC3)C21` (racemic) [(±)-I-5], the IC50 in series [1] came out at 450 nM. The same measure, in the same setting: then `NCC1(CC(=O)O)CC2C3CCC(C3)C21` (racemic) [(±)-I-1], with greater than 729 nM. On the same count and under the same terms, with `CC1C2C=CC1C1C2CC1(CN)CC(=O)O` (racemic) [(±)-I-17 p-toluenesulfonate] the figure was 453 nM; with `NCC1(CC(=O)O)CC2C1C1C=CC2C12CC2` (racemic) [(±)-I-9 p-toluenesulfonate], greater than 729 nM. As to `NCC1(CC(=O)O)CC2C3C[C@H]([C@H]4C[C@H]34)[C@@H]21` (mixture of isomers) [(±)-I-7], the IC50 in series [1] was found to be 70 nM. Also, in series [2], the “area under the mechanical pain threshold-time curve compared with the vehicle control group” value is “significantly improved” and the “maximum possible effect (% MPE)” value was 73.63%. In addition, the animal death result in series [4] was “no animals are dead”. Further, in series [4] (per animal), the “Observation of clinical symptoms 0.5 h” value is given as 0, the “Observation of clinical symptoms 2 h” value is 3, the “Observation of clinical symptoms 4 h” value is 0 and the “Observation of clinical symptoms 6 h” value is 0. Further, the “Observation of clinical symptoms 24 h” value in series [4] (per animal) is on record as 0. In addition, the “Observation of clinical symptoms 1 h” value in series [4] (per animal, 300 mg/kg) is 3.

With `NCC1(CC(=O)O)CC2C3C=CC(CC3)C21` (racemic) [(±)-I-6 p-toluenesulfonate], the IC50 in series [1] was 300 nM.

In the case of `NCC1(CC(=O)O)CC2C3CCC(C3)C21` (racemic) [(±)-I-12], in series [1], the IC50 is greater than 729 nM. The same measure, in the same setting: with `CC1(C)C2C=CC1C1C2CC1(CN)CC(=O)O` (racemic) [(±)-I-15 p-toluenesulfonate] the figure was 580 nM. On the same count and under the same terms, with `NCC1(CC(=O)O)CC2C3C=CC(C3)C21` (racemic) [(±)-I-11 p-toluenesulfonate] the figure was greater than 729 nM. Same read-out and setting: then `CC1=C(C)C2(C)C3C(CC3(CN)CC(=O)O)C1(C)C2C` (racemic) [(±)-I-8], with greater than 729 nM. On to `Cc1ccc(S(=O)(=O)O)cc1.NCC1(CC(=O)O)CC2C3CCC(C3)C21` (single isomer, unassigned; (-)) [(−)-I-3 p-toluenesulfonate], for which the IC50 in series [1] was greater than 243 nM. For the same molecule, the “maximum possible effect (MPE)” value in series [2] is recorded as 30.22%.

With `CC1(C)C2CC[C@@H]1[C@H]1C2CC1(CN)CC(=O)O` (mixture of isomers) [(±)-I-14], the IC50 in series [1] amounted to 600 nM. Still for that read-out and setting: with `NCC1(CC(=O)O)CC2C1C1CCC2C12CC2` (racemic) [(±)-I-10] the figure was greater than 729 nM. As for `Cc1ccc(S(=O)(=O)O)cc1.NCC1(CC(=O)O)CC2C3C=CC(C3)C21` (racemic) [(±)-I-4 p-toluenesulfonate], in series [2], the “area under the mechanical pain threshold-time curve compared with the vehicle control group” value is reported as “significantly improved” and the “maximum possible effect (% MPE)” value is 95.95%. On to `CC1=C(C)C2(C)C3C(CC3(CN)CC(=O)O)C1(C)C2(C)C` (racemic) [(±)-I-19], for which the IC50 in series [1] was greater than 729 nM.

(Values after patent publication US20260174682A1, “GAMMA-AMINOBUTYRIC ACID DERIVATIVE COMPRISING POLYCYCLIC STRUCTURE, METHOD FOR PREPARING SAME, AND USE THEREOF” (ZHONGSHAN INSTITUTE FOR DRUG DISCOVERY, SIMM, CAS., priority 2022, published 2026).)
